Laboratory results: patent US20250312321A1, “TRANSIENT SIROLIMUS WITH FASL MICROGELS” (iTOLERANCE, Inc., priority 2022, published 2025)

Design: species or system non-human primates (Cyno)
Conditions: cynomolgus monkey, in vivo
Procedure: Biotinylated PEG microgels (150 μm diameter) were synthesized by microfluidic cross-linking and functionalized with SA-FasL as previously described (Headon, D M, et al., Nat. Mater. 17:732-739 (2018)). Four diabetic non-human primates (NHP) (FIG. 1B; Tables 1 and 2) underwent transplantation of allogeneic islets (14,800 to 18,700 islet equivalents (IEQ)/kg) mixed with SA-FasL-presenting microgels (150,000 to 200,000 microgels delivering 0.2 mg of SA-FasL) on the omental surface. […]
At selected time points, intravenous glucose tolerance tests (IVGTT) were performed to assess glucose disposal kinetics and insulin and C-peptide levels. […] Consistent with these metrics of graft function, background levels of insulin and C-peptide were measured in the serum of SA-FasL microgel NHPs after STZ administration but before islet transplant and equivalently low levels were evident post-graft removal (insulin: pre-STZ vs. post-STZ, P<0.0001; post-STZ vs. post-graft removal (PGR), P=0.9998; C-peptide: pre-STZ vs. post-STZ, P=0.0060; post-STZ vs. post-graft removal, P=0.4032) (FIG. 2D). […] SA-FasL protein was detected in the serum of all NHPs as early as 1-day after transplantation ranging from 4-56 ng/mL and decreasing to background levels by days 7-14.

For `CO[C@H]1C[C@@H]2CC[C@@H](C)[C@@](O)(O2)C(=O)C(=O)N2CCCC[C@H]2C(=O)O[C@H]([C@H](C)C[C@@H]2CC[C@@H](O)[C@H](OC)C2)CC(=O)[C@H](C)/C=C(\C)[C@@H](O)[C@@H](OC)C(=O)[C@H](C)C[C@H](C)/C=C/C=C/C=C/1C` [Sirolimus], the “Time after discontinuation at which sirolimus levels became undetectable” value was 2 weeks.
